pIC50: −log10 of the molar value.
System: 379773-124-R-J2-PDC spheroid viability
Test: Anticancer human tumor 379773-124-R-J2-PDC patient-derived endometrial carcinoma cell line growth inhibition [POLQ]
Conditions: spheroids with HUVEC and MSC; for pIC50: curve of first compound; for viability, T/C: stronger effect = lower value
Method in brief: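 PDC + HUVEC + MSC complex spheroids; POLQ inhibitors ± partner drugs; top conc. at/near clinical Cmax, else 10 microM (SN-38 1 microM), half-log dilutions; 37 degrees C, 5% CO2.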

[1] = second compound 0.0316 µM, first compound 0.0316 µM
[2] = second compound 0.0316 µM, first compound 0.1 µM
[3] = second compound 0.0316 µM, first compound 0.316 µM
[4] = second compound 0.0316 µM, first compound 1 µM
[5] = second compound 0.0316 µM, first compound 3.16 µM
[6] = second compound 0.0316 µM, first compound 10 µM
[7] = second compound 0.1 µM, first compound 0.0316 µM
[8] = second compound 0.1 µM, first compound 0.1 µM
[9] = second compound 0.1 µM, first compound 0.316 µM
[10] = second compound 0.1 µM, first compound 1 µM
[11] = second compound 0.1 µM, first compound 3.16 µM
[12] = second compound 0.1 µM, first compound 10 µM
[13] = second compound 0.316 µM, first compound 0.0316 µM
[14] = second compound 0.316 µM, first compound 0.1 µM
[15] = second compound 0.316 µM, first compound 0.316 µM
[16] = second compound 0.316 µM, first compound 1 µM
[17] = second compound 0.316 µM, first compound 3.16 µM
[18] = second compound 0.316 µM, first compound 10 µM
[19] = second compound 1 µM, first compound 0.0316 µM
[20] = second compound 1 µM, first compound 0.1 µM
[21] = second compound 1 µM, first compound 0.316 µM
[22] = second compound 1 µM, first compound 1 µM
[23] = second compound 1 µM, first compound 3.16 µM
[24] = second compound 1 µM, first compound 10 µM
[25] = second compound 3.16 µM, first compound 0.0316 µM
[26] = second compound 3.16 µM, first compound 0.1 µM
[27] = second compound 3.16 µM, first compound 0.316 µM
[28] = second compound 3.16 µM, first compound 1 µM
[29] = second compound 3.16 µM, first compound 3.16 µM
[30] = second compound 3.16 µM, first compound 10 µM
[31] = second compound 10 µM, first compound 0.0316 µM
[32] = second compound 10 µM, first compound 0.1 µM
[33] = second compound 10 µM, first compound 0.316 µM
[34] = second compound 10 µM, first compound 1 µM
[35] = second compound 10 µM, first compound 3.16 µM
[36] = second compound 10 µM, first compound 10 µM
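Note: spheroids exposed to drugs for seven days before readout.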
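Throughout, for viability, T/C: percent viability relative to DMSO vehicle control taken as 100%.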

`CC1COCCN1c1cc(-c2ccnn2C)c2ccnc(-c3ccn[nH]3)c2n1` (stereo unspecified) + Nc1ccc(C#CCN(C(=O)Cc2ncc(C(F)(F)F)cc2C(F)(F)F)c2ccc(F)cc2)nn1 was tested, and the pIC50 (second compound 0.0316 µM) was 6.92, the pIC50 (second compound 0.1 µM) was 6.88 and the pIC50 (second compound 0.316 µM) was 6.94. The pIC50 (second compound 1 µM) was 6.89, the pIC50 (second compound 3.16 µM) was 6.87 and the pIC50 (second compound 10 µM) was 6.85. For the same molecule, the viability, T/C [1] was 89.5%, the viability, T/C [2] was 56.8% and the viability, T/C [3] was 13.7%. It also gave a viability, T/C [4] of 11.4%, a viability, T/C [5] of 12% and a viability, T/C [6] of 6.24%. For the same molecule, the viability, T/C [7] was 89.5%, the viability, T/C [8] was 61.2% and the viability, T/C [9] was 15.6%. It also gave a viability, T/C [10] of 11.1%, a viability, T/C [11] of 12.2% and a viability, T/C [12] of 8.99%. For the same molecule, the viability, T/C [13] was 90.6%, the viability, T/C [14] was 54.3% and the viability, T/C [15] was 16.2%. For the same molecule, the viability, T/C [16] was 11.5%, the viability, T/C [17] was 12.7% and the viability, T/C [18] was 7.88%. For the same molecule, the viability, T/C [19] was 93.2%, the viability, T/C [20] was 60.6% and the viability, T/C [21] was 13.9%. It also gave a viability, T/C [22] of 9.22%, a viability, T/C [23] of 12.6% and a viability, T/C [24] of 9.58%. It also gave a viability, T/C [25] of 91.4%, a viability, T/C [26] of 62.9% and a viability, T/C [27] of 13%. For the same molecule, the viability, T/C [28] was 10.6%, the viability, T/C [29] was 10.9% and the viability, T/C [30] was 7.43%. For the same molecule, the viability, T/C [31] was 80.1%, the viability, T/C [32] was 64.2% and the viability, T/C [33] was 17.7%. For the same molecule, the viability, T/C [34] was 8.24%, the viability, T/C [35] was 12.3% and the viability, T/C [36] was 8.65%.

In the case of `COc1cc2cc(C(=O)CCC(=O)O)sc2cc1OC` + Nc1ccc(C#CCN(C(=O)Cc2ncc(C(F)(F)F)cc2C(F)(F)F)c2ccc(F)cc2)nn1, the pIC50 (second compound 0.0316 µM) was under 5.00, the pIC50 (second compound 0.1 µM) was under 5.00 and the pIC50 (second compound 0.316 µM) was under 5.00. For the same molecule, the pIC50 (second compound 1 µM) was under 5.00, the pIC50 (second compound 3.16 µM) was under 5.00 and the pIC50 (second compound 10 µM) was under 5.00. It also gave a viability, T/C [1] of 84.3%, a viability, T/C [2] of 97.2% and a viability, T/C [3] of 87.6%. It also gave a viability, T/C [4] of 93.6%, a viability, T/C [5] of 93.9% and a viability, T/C [6] of 82.7%. For the same molecule, the viability, T/C [7] was 93.9%, the viability, T/C [8] was 86% and the viability, T/C [9] was 91.8%. The viability, T/C [10] was 85.5%, the viability, T/C [11] was 104% and the viability, T/C [12] was 92.7%. It also gave a viability, T/C [13] of 101%, a viability, T/C [14] of 82.6% and a viability, T/C [15] of 93.7%. It also gave a viability, T/C [16] of 93.3%, a viability, T/C [17] of 85.6% and a viability, T/C [18] of 96%. It also gave a viability, T/C [19] of 94.8%, a viability, T/C [20] of 84% and a viability, T/C [21] of 96.3%. For the same molecule, the viability, T/C [22] was 87.8%, the viability, T/C [23] was 96.4% and the viability, T/C [24] was 85.3%. The viability, T/C [25] was 98.9%, the viability, T/C [26] was 83.4% and the viability, T/C [27] was 82.4%. It also gave a viability, T/C [28] of 105%, a viability, T/C [29] of 90.1% and a viability, T/C [30] of 104%. For the same molecule, the viability, T/C [31] was 96.2%, the viability, T/C [32] was 89.6% and the viability, T/C [33] was 86.4%. For the same molecule, the viability, T/C [34] was 89.3%, the viability, T/C [35] was 84.9% and the viability, T/C [36] was 93.5%.

Molecule `O=c1[nH]cc(F)c(=O)[nH]1` + COC1C(OC(N)=O)C(O)C(Oc2ccc3c(O)c(NC(=O)c4ccc(O)c(CC=C(C)C)c4)c(=O)oc3c2C)OC1(C)C has a pIC50 (second compound 0.0316 µM) of under 5.00, a pIC50 (second compound 0.1 µM) of under 5.00 and a pIC50 (second compound 0.316 µM) of under 5.00. The pIC50 (second compound 1 µM) was under 5.00, the pIC50 (second compound 3.16 µM) was under 5.00 and the pIC50 (second compound 10 µM) was under 5.00. It also gave a viability, T/C [1] of 85.1%, a viability, T/C [2] of 83.2% and a viability, T/C [3] of 85.4%. For the same molecule, the viability, T/C [4] was 80.3%, the viability, T/C [5] was 69.1% and the viability, T/C [6] was 51.8%. For the same molecule, the viability, T/C [7] was 90.7%, the viability, T/C [8] was 88.8% and the viability, T/C [9] was 81.8%. It also gave a viability, T/C [10] of 86.2%, a viability, T/C [11] of 68.6% and a viability, T/C [12] of 61%. It also gave a viability, T/C [13] of 92.7%, a viability, T/C [14] of 90.4% and a viability, T/C [15] of 80.9%. It also gave a viability, T/C [16] of 78%, a viability, T/C [17] of 75.8% and a viability, T/C [18] of 56.6%. The viability, T/C [19] was 82.6%, the viability, T/C [20] was 77.2% and the viability, T/C [21] was 88.4%. For the same molecule, the viability, T/C [22] was 74.6%, the viability, T/C [23] was 71.1% and the viability, T/C [24] was 60.3%. The viability, T/C [25] was 78.2%, the viability, T/C [26] was 82.6% and the viability, T/C [27] was 90.4%. The viability, T/C [28] was 70.8%, the viability, T/C [29] was 76.6% and the viability, T/C [30] was 57.5%. The viability, T/C [31] was 75.6%, the viability, T/C [32] was 78.5% and the viability, T/C [33] was 76.1%. It also gave a viability, T/C [34] of 71%, a viability, T/C [35] of 70.6% and a viability, T/C [36] of 55.3%.

— PubChem BioAssay AID1963848 (Molecular Pharmacology Branch, DTP, NCI, 2024)
